Reference: EP4534088A1, “ARFOLITIXORIN FOR USE IN VITAMIN B6-ENHANCED, 5-FLUOROURACIL-BASED CHEMOTHERAPY OF CARCINOMAS” (priority 2023, dated 2025)

Legend:
thymidylate synthase = molecular target: T1, thymidylate synthase (Homo sapiens, UniProt P04818); test: Modelle-001 Phase II clinical trial: TS inhibition in colorectal liver metastases (LC-MS/MS); format: in vivo; settings: iv, i.v. bolus, with 500 mg/m2 5-FU, mean
T1 construct: from tissue; host or cells: colorectal liver metastasis tissue from human patients
Description: The difference in a clinical setting in human patients between leucovorin and arfolitixorin has been analyzed by Taflin et al. in the Modelle 001 Phase 2 clinical study (TS-inhibition in Colorectal Liver Metastases Comparing Arfolitixorin and Calciumfolinate), the primary objective of which is to compare the TS-inhibtion capacity of the combination Arfolitixorin/5-FU in contrast to Calciumfolinate/5-FU in tumour, adjacent liver parenchyma and plasma in patients with liver metastases from colorectal cancer (Study Details | Modelle 001, TS-inhibition in Colorectal Liver Metastases Comparing Arfolitixorin and Calciumfolinate | ClinicalTrials.gov) (Taflin 2023).
(§1) The effectiveness of arfolitixorin vs. leucovorin in Thymidylate Synthase inhibition and in achieving high levels of [6R] 5,10-methylenetetrahydrofolate in metastatic tissue was investigated in the Modelle-001 Phase II clinical trial named "A Single-blinded, Randomized Phase II study investigating the effects of two doses of Arfolitixorin compared to Calcium folinate together with 5-fluorouracil on thymidylate synthase in tumour and adjacent hepatic tissue for patients with liver metastases from colorectal cancer". Link: Study Details I Modelle 001, TS-inhibition in Colorectal Liver Metastases Comparing Arfolitixorin and Calciumfolinate I Clinical-Trials.gov.
(§2) Aim: The Modelle-001 trial was designed to explore how a single intravenous bolus injection of Arfo as compared to LV in the form of calcium folinate, together with 5-FU affects the inhibition of TS and, further, to investigate how different forms and doses of folates affect folate concentration and polyglutamation in metastatic liver tissue.
Patients and Methods: Thirty adult patients with biopsy-verified colorectal cancer and liver metastases indicated for surgical removal were included at two Swedish University Hospitals. Both synchronous and metachronous liver metastases were accepted and most patients had received preoperative chemotherapy. […] Folate levels and TS inhibition were determined by LC-MS/MS.

[1] = cited from earlier work
[2] = cited from earlier work; remark: listed apart in the source
[3] = Modelle-001 Phase II clinical trial: folate concentration and polyglutamation in metastatic liver tissue (LC-MS/MS); format: in vivo, human; settings: compared to LV60; for ratio of poly/monoglutamated folates: after 5-FU administration
Description: as §1, §2
Patients and Methods: Thirty adult patients with biopsy-verified colorectal cancer and liver metastases indicated for surgical removal were included at two Swedish University Hospitals. Both synchronous and metachronous liver metastases were accepted and most patients had received preoperative chemotherapy. The first six patients received a reduced 5-FU dosage (250 mg/m2), and an independent safety committee gave permission to escalate to full dosage. Twenty-four patients were randomized to receive 500 mg/m2 5-FU either in combination with 60 mg/m2 LV (LV60, n = 12), 30 mg/m2 Arfo (A30, n = 6) or 120 mg/m2 Arfo (A120, n = 6) as a bolus regimen (a slow i.v. injection for three minutes). Metastatic tissue was collected 60 minutes after folate administration, then 5-FU was given. After a 60-minute break, metastatic tissue was again collected. Folate levels and TS inhibition were determined by LC-MS/MS.

solid tumors = test: Phase I/IIa study ISO-CC-005: tumour response to arfolitixorin doublet regimens (ARFIRI/ARFOX); format: in vivo, human; settings: 120 mg/m^2 arfolitixorin and 5-FU with either irinotecan or oxaliplatin (ARFIRI/ARFOX)
Method: Arfolitixorin has been in development for a number of years and has been studied in several clinical studies.
The completion of the study was announced in January 2020. In total, 105 patients were included in the study. […] These patients had been treated with the "doublet" regimens comprising 120 mg/m^2 arfolitixorin and 5-fluorouracil (5-FU) with either irinotecan or oxaliplatin (ARFIRI/ARFOX). Out of the 31 patients, 17 were treated with an ARFOX regimen.

[4] = [6R]-MTHF levels after arfolitixorin versus comparable leucovorin treatment; format: in vivo; settings: fold higher than leucovorin
Description: Leucovorin and I-leucovorin, both currently approved for treatment of gastrointestinal and other cancers, need to be metabolically activated to [6R]-MTHF to potentiate the effect of 5-FU. This dependency on cellular activation provides a hurdle for reaching sufficient levels of the active [6R]-MTHF. […] Secondly, the enzymatic activation is genetically regulated^16,18, and is therefore associated with variability between individuals and conditions. Arfolitoxirin is believed to be efficacious in a larger proportion of patients with less inter- and intra-individual variability. These differences may potentially turn out to be of significant importance for increased clinical efficacy in 5-FU based cancer treatment.

[5] = tested on: advanced metastatic colorectal adenocarcinoma; settings: FOLFIRINOX (± cetuximab) supplemented with pyridoxine in high doses, cited from earlier work

T1 sequence (P04818 2-313 limits assumed): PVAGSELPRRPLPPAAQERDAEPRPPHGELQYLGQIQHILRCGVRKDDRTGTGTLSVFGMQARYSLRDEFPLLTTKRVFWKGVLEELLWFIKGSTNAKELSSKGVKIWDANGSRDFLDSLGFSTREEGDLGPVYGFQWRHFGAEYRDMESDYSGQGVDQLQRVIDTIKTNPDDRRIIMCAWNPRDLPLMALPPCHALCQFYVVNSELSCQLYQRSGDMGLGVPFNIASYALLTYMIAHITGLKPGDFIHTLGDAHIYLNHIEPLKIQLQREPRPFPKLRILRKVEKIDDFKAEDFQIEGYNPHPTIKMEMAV

With `Nc1nc2c(c(=O)[nH]1)N(C=O)C(CNc1ccc(C(=O)N[C@@H](CCC(=O)O)C(=O)O)cc1)CN2` (stereo partly shown) [Leucovorin, 5-formyl tetrahydrofolic acid, reference compound] as the molecule, how does the inhibition at 60 mg/m2 (thymidylate synthase; 60 mg/m2 Leucovorin (LV60)) read?
Its inhibition at 60 mg/m2 is 25.4%.

With `Cc1ncc(CO)c(CO)c1O.Cl` [Pyridoxine hydrochloride] as the molecule, how does the stability in air ([1]; air) read?
The stability in air was “stable in air”.

And the stability to sunlight ([1]; sunlight)?
The stability to sunlight was “slowly affected by sunlight”.

What about the “volume of water in which one gram dissolves” value [2] of the same molecule?
Its value is 5 mL.

Which results are given for `Nc1nc2c(c(=O)[nH]1)N1CN(c3ccc(C(=O)N[C@@H](CCC(=O)O)C(=O)O)cc3)C[C@H]1CN2` [arfolitixorin, [6R]-5,10-methylenetetrahydrofolate]?
ratio of poly/monoglutamated folates ([3]; 30 mg/m2 (A30), p = 0.045): higher; 5,10-methylenetetrahydrofolate (CH2THF) concentrations in metastases ([3]; 30 mg/m2 (A30), after 5-FU treatment, p = 0.031): higher; 5,10-methylenetetrahydrofolate (CH2THF) concentrations in metastases ([3]; 30 mg/m2 (A30), before 5-FU treatment, p = 0.037): higher; ratio of poly/monoglutamated folates ([3]; 120 mg/m2 (A120), p = 0.0049): higher; 5,10-methylenetetrahydrofolate (CH2THF) concentrations in metastases ([3]; 120 mg/m2 (A120), after 5-FU treatment, p = 0.0023): higher; 5,10-methylenetetrahydrofolate (CH2THF) concentrations in metastases ([3]; 120 mg/m2 (A120), before 5-FU treatment, p = 0.0003): higher; inhibition at 30 mg/m2 (thymidylate synthase; 30 mg/m2 arfolitixorin (A30)): 54.2%; inhibition at 120 mg/m2 (thymidylate synthase; 120 mg/m2 arfolitixorin (A120)): 83.8%; best overall response rate (ORR) (solid tumors): 55%; [6R]-MTHF levels relative to comparable treatment with leucovorin [4]: 3-4 times

With `Cc1ncc(CO)c(CO)c1O` [pyridoxine] as the molecule, how does the “toxicity associated with the pyridoxine-modified protocols” value [5] read?
The value was “of the same magnitude as expected for the standard protocols”.

And the Antitumor activity ([5]; five patients, no controls)?
Its Antitumor activity is “high for several patients”.
